Among the data in patent publication US20240308976A1, “COMPOUNDS THAT MEDIATE PROTEIN DEGRADATION AND USES THEREOF” (Monte Rosa Therapeutics, Inc., priority 2021, published 2024) are IC50 and DC50 values, retold here.

Structures are written as SMILES.

One test has as its target CRBN-DDB1 (Homo sapiens, UniProt Q96SW2). Kind of test: Compound binding to CRBN by HTRF assay. Conditions: CRBN-DDB1 2.5 nM, Cy5-Thalidomide 100 nM, 30 min at ambient temperature; read-out: HTRF Class (Cereblon binding, HTRF IC50). As for the experimental part:
Example 146: Compound Binding to CRBN by HTRF Assay
Compound activity was monitored in a Homogenous Time-Resolved Fluorescence (HTRF) assay using 1-[5-({2-[2-(2-{[2-(2,6-dioxopiperidin-3-yl)-1,3-dioxo-2,3-dihydro-1H-isoindol-4-yl]oxy}acetamido)ethoxy]ethyl}carbamoyl)pentyl]-3,3-dimethyl-2-[(1E,3E)-5-[(2E)-1,3,3-trimethyl-5-sulfo-2,3-dihydro-1H-indol-2-ylidene]penta-1,3-dien-1-yl]-3H-indol-1-ium-5-sulfonate as a fluorescent probe. Biochemical assays were conducted in Greiner white 384 well HiBase plates (Cat. No 784075-25) in 10 μL total volume. A one pot detection solution of CRBN-DDB1 (2.5 nM), Anti-His Terbium Cryptate Gold (1X, PerkinElmer Cat. #: 61HI2TLB), and Cy5-Thalidomide (100 nM, Tenova Cat.: T52461) was prepared in 20 mM HEPES, 20 mM NaCl, 0.2 mM TCEP, 0.2 mM EDTA, and 0.005% Tween20 was dispensed to each assay plate. Compounds were stored in dry, ambient temperatures at 10 mM. A 10-point, 1:3 dilution series was prepared from 10 mM stock concentrations in Echo-compatible LDV plates. 10 nL of each compound dilution series was dispensed into assays wells using an Echo 650 (Labcyte inc. USA). 10 nL of 10 mM Lenalidomide was transferred into the active-control wells for the assay and 10 nL of DMSO was transferred into the neutral-control wells. The assay was then allowed to incubate for 30 min at ambient temperature after transferring compound. Plate measurements were taken on a Pherastar FSX (BMG Labtech, Germany) using the HTRF Red filter (Ex. 337 nm, em1: 620 nm, em2: 665 nm) (Flashes: 50, Integration time: 60-400 us, Z-height: 10 mm, Ratio-multiplier: 10,000). The HTRF signal was then subsequently normalized to the neutral and active controls. Analysis and IC50 values were derived using KNIME analytics (KNIME Zurich) transformation and fitting within Collaborative Drug Discovery (Collaborative Drug Discovery USA). Ki was derived from the geometric mean of the IC50 values using the Cheng-Prustoff transformation.
(§1) In Table 2, each compound is assigned a class (HTRF class) indicating the ability for Cereblon binding by means of their HTRF IC50 values according to […]: A, B, C or D. According to the code, A represents an IC50 value of ≤100 nM, B represents an IC50 value>100 nM and ≤1000 nM, C represents an IC50 value>1000 nM. IF Class assigns each compound a code indicating the ability for GSPT1 degradation: A, B or C. According to the code, A represents a DC50 value of ≤30 nM, B represents a DC50 value>30 nM and ≤300 nM and C represents a DC50 value of >300 nM.

A further test has as its target T1, GSPT1 (Homo sapiens, UniProt P15170+Q96SW2).
T1 construct: CAL-51 cells were purchased from DSMZ (cat. Number ACC302); host or cells: CAL-51
Kind of test: Immunofluorescence assay for activity to degrade GSPT1 in CAL-51 cells. The settings on record: 6 h treatment, read-out: IF Class (GSPT1 degradation, DC50). In kind it is cell-based. As for the experimental part:
Example 147: Compound Activity by Immunofluorescence Assay
The representative compounds were tested in an immunofluorescence assay for their activity to degrade GSPT1. CAL-51 cells were purchased from DSMZ (cat. Number ACC302), sub-cultured in 90% Dulbecco's MEM (4.5 g/L glucose, Gibco 11965)+10% heat inactivated FBS (BioConcept, 2-01F136I) and incubated at 37° C., 5% CO2. For the assay imaging microtiter plate Cell Carrier 96 Ultra (Perkin Elmer 6055302) were pre-coated with Fibronectin (Sigma F085, 30 μL at 0.2 μg/mL) in PBS (100 μL, Gibco 14190) for 45 min at room temperature, rinsed with PBS and CAL-51 cells (30K cells/well) were plated and let to adhere overnight. Cells were treated with compounds typically using a serial dilution ranging from 30 μM to 0.1 nM for 6 h. Compounds were stored at 10 mM DMSO stocks. Vehicle (DMSO), positive (CC-885, 10 μM) and rescue controls (positive control plus 0.2 μM bortezomib) were also included at this stage. Cells were subsequently rinsed with PBS and fixed in 10% Formalin solution (50 μL, Sigma HT5011)) for 20 mins at room temperature. Following three consecutive PBS washes (100 μL), cells were permeabilized in 0.1% Triton X-100 in PBS (Sigma 93443, 50 μL) for 15 min. at room temperature. Following three further PBS washes, 50 μL blocking buffer (1% BSA, Sigma A4503, in PBS) was added for 45 min for signal-to noise reduction. Primary antibody (human GSPT1, Sigma HPA052488) was diluted in blocking buffer (dil.1/300, 35 μL/well) and incubated with the cells overnight at 4° C. After three PBS washes, Alexa-fluor 488 coupled secondary antibodies (Invitrogen, A32731, dil. 1/1000), Alexa-fluor 647-Phalloidin (Invitrogen, A22287, dil. 1/200) and DAPI (Thermo, #62248, dil. 1/1000) were diluted in blocking buffer and incubated with the samples for 2 h at room temperature. After three final PBS washes, samples were conserved in 100 μL PBS in the dark, until measurement. Image acquisition was performed on the Operetta High-Content Imager (Perkin-Elmer). Fluorescence intensity of […] (GSPT1), Alexa-Fluor 647 (Actin) and DAPI (Nucleus) were measured. For the determination of GSPT1 DC50 values, a custom algorithm implemented in the PerkinElmer image analysis software Harmony-Acapella® was developed. After user-defined setting of adjustment parameters, the analysis was run identically without human intervention for all image fields. DAPI staining of the nuclei was used to determine the location of cells using standard nuclei detection modules. Segmentation artifacts were removed by threshold-based filters for area, roundness and intensity. The outline of the cells was determined analogously from the sum of the normalized, smoothed DAPI and Actin channel, starting from each nucleus. The Alexa-Fluor 488 (GSPT1) signal intensity in each cell was finally measured, in order to obtain a Mean intensity per cell. GSPT1 degradation (DC50) was calculated after normalization to controls and data import in CDD vault Database, using non-linear regression.
as §1

Chain of CRBN-DDB1 (Q96SW2 whole entry): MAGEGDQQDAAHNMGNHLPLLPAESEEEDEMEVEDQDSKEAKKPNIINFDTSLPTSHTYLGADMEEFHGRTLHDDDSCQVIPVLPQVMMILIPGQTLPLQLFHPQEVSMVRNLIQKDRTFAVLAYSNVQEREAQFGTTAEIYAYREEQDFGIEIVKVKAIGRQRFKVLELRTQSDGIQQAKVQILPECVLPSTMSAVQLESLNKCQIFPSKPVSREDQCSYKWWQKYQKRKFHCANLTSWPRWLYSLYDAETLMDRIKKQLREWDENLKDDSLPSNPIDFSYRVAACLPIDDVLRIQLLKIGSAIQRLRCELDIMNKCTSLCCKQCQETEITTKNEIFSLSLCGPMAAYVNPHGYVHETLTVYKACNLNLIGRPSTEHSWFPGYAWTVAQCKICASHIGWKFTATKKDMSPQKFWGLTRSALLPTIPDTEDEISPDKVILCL
Chain of CRBN-DDB1 (Q16531 whole entry partner): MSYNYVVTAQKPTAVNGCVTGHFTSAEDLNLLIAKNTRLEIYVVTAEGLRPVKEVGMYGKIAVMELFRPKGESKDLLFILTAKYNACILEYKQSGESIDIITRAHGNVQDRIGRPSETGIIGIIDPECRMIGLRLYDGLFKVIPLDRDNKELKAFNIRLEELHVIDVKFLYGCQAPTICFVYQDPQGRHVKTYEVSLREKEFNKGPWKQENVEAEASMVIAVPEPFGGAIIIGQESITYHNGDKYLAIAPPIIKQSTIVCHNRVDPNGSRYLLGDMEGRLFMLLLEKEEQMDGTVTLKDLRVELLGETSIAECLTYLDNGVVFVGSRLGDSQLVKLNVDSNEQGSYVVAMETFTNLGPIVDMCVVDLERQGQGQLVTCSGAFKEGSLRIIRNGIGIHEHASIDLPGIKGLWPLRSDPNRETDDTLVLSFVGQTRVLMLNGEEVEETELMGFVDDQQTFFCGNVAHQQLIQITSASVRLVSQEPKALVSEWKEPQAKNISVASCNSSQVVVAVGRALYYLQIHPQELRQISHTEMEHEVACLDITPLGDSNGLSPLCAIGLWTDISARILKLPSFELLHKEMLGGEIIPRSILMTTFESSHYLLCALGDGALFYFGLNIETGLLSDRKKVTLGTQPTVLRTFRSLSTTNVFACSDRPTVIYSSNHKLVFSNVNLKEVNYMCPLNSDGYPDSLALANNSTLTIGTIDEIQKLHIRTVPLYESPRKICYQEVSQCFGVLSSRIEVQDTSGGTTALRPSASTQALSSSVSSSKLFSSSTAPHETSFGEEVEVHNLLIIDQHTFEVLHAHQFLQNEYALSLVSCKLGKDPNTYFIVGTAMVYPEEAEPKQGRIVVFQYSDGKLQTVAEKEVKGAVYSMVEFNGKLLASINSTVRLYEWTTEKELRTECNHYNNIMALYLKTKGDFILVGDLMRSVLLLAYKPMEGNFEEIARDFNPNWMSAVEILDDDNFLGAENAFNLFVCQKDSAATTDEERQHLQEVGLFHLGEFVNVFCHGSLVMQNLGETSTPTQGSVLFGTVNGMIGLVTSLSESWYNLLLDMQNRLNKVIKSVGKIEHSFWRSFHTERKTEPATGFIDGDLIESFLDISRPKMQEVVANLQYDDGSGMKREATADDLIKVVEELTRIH
T1 sequence (P15170 whole entry): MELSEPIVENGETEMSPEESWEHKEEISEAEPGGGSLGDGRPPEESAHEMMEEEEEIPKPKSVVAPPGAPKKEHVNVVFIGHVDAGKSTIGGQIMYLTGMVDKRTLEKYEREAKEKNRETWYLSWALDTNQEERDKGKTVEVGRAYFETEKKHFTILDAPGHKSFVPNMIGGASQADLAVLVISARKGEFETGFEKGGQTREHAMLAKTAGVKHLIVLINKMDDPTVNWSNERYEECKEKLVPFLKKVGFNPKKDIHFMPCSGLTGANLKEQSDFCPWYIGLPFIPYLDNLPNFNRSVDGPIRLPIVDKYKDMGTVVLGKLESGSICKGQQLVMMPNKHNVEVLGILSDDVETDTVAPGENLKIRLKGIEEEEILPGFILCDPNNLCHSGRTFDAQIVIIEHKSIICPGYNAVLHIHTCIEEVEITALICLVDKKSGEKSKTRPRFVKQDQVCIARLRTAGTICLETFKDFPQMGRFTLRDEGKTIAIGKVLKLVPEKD
T1 sequence (Q96SW2 whole entry): as the sequence (Q96SW2 whole entry) above
T1 sequence (Q16531 2-1140 partner limits assumed): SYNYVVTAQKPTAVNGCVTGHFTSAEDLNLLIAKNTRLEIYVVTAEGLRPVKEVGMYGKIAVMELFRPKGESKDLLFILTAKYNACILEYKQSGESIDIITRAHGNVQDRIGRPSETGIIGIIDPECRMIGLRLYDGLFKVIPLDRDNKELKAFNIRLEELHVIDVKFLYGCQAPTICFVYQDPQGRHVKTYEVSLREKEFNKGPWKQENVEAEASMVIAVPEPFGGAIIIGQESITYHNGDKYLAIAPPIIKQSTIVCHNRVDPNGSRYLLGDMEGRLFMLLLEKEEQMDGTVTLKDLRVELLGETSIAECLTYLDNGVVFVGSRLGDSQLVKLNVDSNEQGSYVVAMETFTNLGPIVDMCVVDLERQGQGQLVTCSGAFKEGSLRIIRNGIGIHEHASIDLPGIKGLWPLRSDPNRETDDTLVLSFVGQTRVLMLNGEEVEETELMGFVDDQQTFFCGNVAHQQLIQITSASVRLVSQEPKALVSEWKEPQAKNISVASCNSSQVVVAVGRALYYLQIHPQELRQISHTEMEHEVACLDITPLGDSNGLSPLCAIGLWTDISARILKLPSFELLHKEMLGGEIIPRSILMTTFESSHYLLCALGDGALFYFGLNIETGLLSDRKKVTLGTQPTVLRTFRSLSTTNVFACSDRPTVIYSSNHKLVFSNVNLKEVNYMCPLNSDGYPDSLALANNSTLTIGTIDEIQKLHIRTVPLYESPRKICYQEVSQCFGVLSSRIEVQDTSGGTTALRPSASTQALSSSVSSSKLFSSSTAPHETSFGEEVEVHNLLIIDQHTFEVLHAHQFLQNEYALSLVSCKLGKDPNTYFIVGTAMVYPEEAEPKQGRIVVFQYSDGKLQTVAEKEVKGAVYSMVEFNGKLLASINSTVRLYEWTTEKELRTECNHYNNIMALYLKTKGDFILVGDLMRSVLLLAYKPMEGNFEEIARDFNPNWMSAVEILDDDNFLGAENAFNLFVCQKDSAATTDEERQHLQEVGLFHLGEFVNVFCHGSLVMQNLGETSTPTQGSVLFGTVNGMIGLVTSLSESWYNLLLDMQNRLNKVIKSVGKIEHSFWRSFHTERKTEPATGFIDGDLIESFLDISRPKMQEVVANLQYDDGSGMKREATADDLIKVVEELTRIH

In general, IC50 refers to the concentration at which inhibition is half-maximal. For orientation: DC50 means the concentration giving 50% degradation. Consider `O=C1CCC(c2c(F)cc(N3CC(OC(=O)Nc4cccc(OC(F)(F)F)c4)C3)cc2F)C(=O)N1` (stereo not shown) [Compound 3, 1-(4-(2,6-dioxopiperidin-3-yl)-3,5-difluorophenyl)azetidin-3-yl(3-(trifluoromethoxy)phenyl) carbamate], for which the IC50 at CRBN-DDB1 fell in the range of 100 to 1000 nM. Moreover, the DC50 at GSPT1 is at most 30 nM.
The matching figures for `Cc1cc(C)cc(NC(=O)OC2CN(c3cc(F)c(C4CCC(=O)NC4=O)c(F)c3)C2)c1` (stereo not shown) [Compound 4, 1-(4-(2,6-dioxopiperidin-3-yl)-3,5-difluorophenyl)azetidin-3-yl (3,5-dimethyl phenyl)carbamate]: 100 to 1000 nM and 30 to 300 nM.
The matching figures for `Cc1c(Cl)cc(NC(=O)OC2CN(c3cc(F)c(C4CCC(=O)NC4=O)c(F)c3)C2)cc1CN1CCOCC1` (stereo not shown) [Compound 5, 1-(4-(2,6-dioxopiperidin-3-yl)-3,5-difluorophenyl) azetidin-3-yl(3-chloro-4-methyl-5-(morpholinomethyl)phenyl)carbamate]: at most 100 nM and 30 to 300 nM.
For `Cc1ccc(NC(=O)OC2CN(c3cc(F)c(C4CCC(=O)NC4=O)c(F)c3)C2)cc1OC(F)F` (stereo not shown) [Compound 6, 1-(4-(2,6-dioxopiperidin-3-yl)-3,5-difluoropheny) azetidin-3-yl(3-(difluoromethoxy)-4-methylphenyl) carbamate] the same measures were 100 to 1000 nM and 30 to 300 nM.
As to `Cc1ccc(NC(=O)NC2CN(c3ccc(C4CCC(=O)NC4=O)c(F)c3)C2)cc1Cl` (stereo not shown) [Compound 7, 1-(3-chloro-4-methylphenyl)-3-(1-(4-(2,6-dioxopiperidin-3-yl)-3-fluorophenyl)azetidin-3-yl)urea], on CRBN-DDB1, the IC50 lay within 100 to 1000 nM. The DC50 on GSPT1 fell in the range of 30 to 300 nM.
For `Cc1ccc(NC(=O)OC2CN(c3ccc(C4CCC(=O)NC4=O)c(F)c3)C2)cc1Cl` (stereo not shown) [Compound 8, 1-(4-(2,6-dioxopiperidin-3-yl)-3-fluorophenyl) azetidin-3-yl(3-chloro-4-methylphenyl)carbamate] the same measures were 100 to 1000 nM and at most 30 nM.
In the case of `Cc1c(Cl)cc(NC(=O)NC2CN(c3cc(F)c(C4CCC(=O)NC4=O)c(F)c3)C2)cc1CN1CC2CC1CO2` (stereo not shown) [Compound 9, 1-(3-(2-oxa-5-azabicyclo[2.2.1]heptan-5-ylmethyl)-5-chloro-4-methylphenyl)-3-(1-(4-(2,6-dioxopiperidin-3-yl)-3,5-difluorophenyl)azetidin-3-yl)urea], the IC50 on CRBN-DDB1 is at most 100 nM. The DC50 on GSPT1 is at most 30 nM.
With `C[C@@H]1CCCN1c1ccc(NC(=O)OC2CN(c3cc(F)c(C4CCC(=O)NC4=O)c(F)c3)C2)cn1` (stereo partly drawn) [Compound 10, 1-(4-(2,6-dioxopiperidin-3-yl)-3,5-difluorophenyl)azetidin-3-yl (6-((R)-2-methylpyrrolidin-1-yl)pyridin-3-yl)carbamate], the IC50 on CRBN-DDB1 is at most 100 nM. For the same molecule, the DC50 on GSPT1 was at most 30 nM.
In the case of `Cc1cc(C)cc(NC(=O)NC2CN(c3cc(F)c(C4CCC(=O)NC4=O)c(F)c3)C2)c1` (stereo not shown) [Compound 11, 1-(3,5-dimethylphenyl)-3-(1-(4-(2,6-dioxopiperidin-3-yl)-3,5-difluorophenyl)azetidin-3-yl)urea], the IC50 on CRBN-DDB1 fell in the range of 100 to 1000 nM. For the same molecule, on GSPT1, the DC50 is at most 30 nM.
Regarding `CC(C)(C)c1ccc(NC(=O)NC2CN(c3cc(F)c(C4CCC(=O)NC4=O)c(F)c3)C2)cn1` (stereo not shown) [Compound 12, 1-(6-(tert-butyl)pyridin-3-yl)-3-(1-(4-(2,6-dioxopiperidin-3-yl)-3,5-difluorophenyl)azetidin-3-yl)urea], the IC50 on CRBN-DDB1 is at most 100 nM. On GSPT1, the DC50 is at most 30 nM.
In the case of `Cc1c(Cl)cc(NC(=O)NC2CN(c3cc(F)c(C4CCC(=O)NC4=O)c(F)c3)C2)cc1OCCN1CCOCC1` (stereo not shown) [Compound 13, 1-(3-chloro-4-methyl-5-(2-morpholinoethoxy)phenyl)-3-(1-(4-(2,6-dioxopiperidin-3-yl)-3,5-difluorophenyl)azetidin-3-yl)urea], the IC50 at CRBN-DDB1 is at most 100 nM. Further, the DC50 at GSPT1 is at most 30 nM.
